Measured values published in patent EP4722213A1, “NITROGEN-CONTAINING FUNCTIONAL GROUP-SUBSTITUTED PYRIDAZINOPYRIDONE DERIVATIVE AND USE THEREOF” (Sichuan Huiyu Pharmaceutical Co., Ltd., priority 2023, dated 2024).
Where a name gives a salt, the structure may show the parent alone.

biological target: T1, SOS1 (Homo sapiens, UniProt Q07889); test: biochemical
T1 sequence (Q07889 1-1333): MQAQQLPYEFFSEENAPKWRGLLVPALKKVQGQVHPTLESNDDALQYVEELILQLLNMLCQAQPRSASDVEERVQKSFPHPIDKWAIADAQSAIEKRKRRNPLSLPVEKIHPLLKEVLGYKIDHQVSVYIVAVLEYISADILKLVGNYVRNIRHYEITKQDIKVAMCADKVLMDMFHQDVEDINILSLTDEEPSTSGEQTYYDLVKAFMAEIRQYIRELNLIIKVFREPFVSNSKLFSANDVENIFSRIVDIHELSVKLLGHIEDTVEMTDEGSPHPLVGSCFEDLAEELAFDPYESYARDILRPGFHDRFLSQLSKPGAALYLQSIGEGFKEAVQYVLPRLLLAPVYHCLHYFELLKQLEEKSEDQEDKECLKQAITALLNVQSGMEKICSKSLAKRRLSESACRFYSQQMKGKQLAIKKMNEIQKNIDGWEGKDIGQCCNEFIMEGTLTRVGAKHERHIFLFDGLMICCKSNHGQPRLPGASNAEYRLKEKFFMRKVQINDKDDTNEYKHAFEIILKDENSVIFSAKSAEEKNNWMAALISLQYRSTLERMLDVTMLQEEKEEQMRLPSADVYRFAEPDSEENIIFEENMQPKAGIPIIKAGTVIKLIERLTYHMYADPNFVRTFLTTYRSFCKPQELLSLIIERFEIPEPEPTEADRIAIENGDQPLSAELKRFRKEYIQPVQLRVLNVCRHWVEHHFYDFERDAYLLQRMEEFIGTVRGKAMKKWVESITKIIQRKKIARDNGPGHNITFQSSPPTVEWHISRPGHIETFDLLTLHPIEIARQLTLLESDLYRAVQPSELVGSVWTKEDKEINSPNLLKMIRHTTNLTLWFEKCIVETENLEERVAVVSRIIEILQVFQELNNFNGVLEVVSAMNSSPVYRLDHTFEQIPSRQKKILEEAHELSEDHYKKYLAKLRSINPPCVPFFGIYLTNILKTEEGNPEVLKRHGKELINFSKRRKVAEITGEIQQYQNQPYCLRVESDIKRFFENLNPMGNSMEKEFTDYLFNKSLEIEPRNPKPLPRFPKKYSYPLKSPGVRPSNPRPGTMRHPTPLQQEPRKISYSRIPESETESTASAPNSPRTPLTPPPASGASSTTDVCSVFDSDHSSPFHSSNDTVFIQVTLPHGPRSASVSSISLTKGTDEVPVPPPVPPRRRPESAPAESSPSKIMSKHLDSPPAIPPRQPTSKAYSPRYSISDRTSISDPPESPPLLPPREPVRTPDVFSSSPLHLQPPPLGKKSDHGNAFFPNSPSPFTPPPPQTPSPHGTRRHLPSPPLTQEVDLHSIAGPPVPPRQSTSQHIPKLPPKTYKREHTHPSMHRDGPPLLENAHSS

First: Cc1c([C@@H](C)Nc2nnc(N3CCS(=O)(=O)CC3)c3cc(=O)n(C4CC4)cc23)cccc1C(F)(F)F [Example 59, (R)-6-cyclopropyl-1-(1,1-dioxidothiomorpholino)-4-((1-(2-methyl-3-(trifluoromethyl)phenyl)ethyl)amino)pyr ido[3,4-d]pyridazin-7(6H)-one]
Second: C[C@@H](Nc1nnc(N2CCS(=O)(=O)CC2)c2cc(=O)n(C3CC3)cc12)c1cccc(C(F)F)c1F [Example 24, (R)-6-cyclopropyl-4-((1-(3-(difluoromethyl)-2-fluorophenyl)ethyl)amino)-1-(1,1-dioxidothiomorpholino)pyrido[3,4-d]pyridazin-7(6H)-one]
The IC50 of the first is 2.2-fold higher: 27.4 nM for the first, 12.7 nM for the second. The second is the more potent here.

Going from C[C@@H](Nc1nnc(N2CCN(C)CC2)c2cc(=O)n(C)cc12)c1cccc(C(F)F)c1F [Example 138, (R)-4-((1-(3-(difluoromethyl)-2-fluorophenyl)ethyl)amino)-6-methyl-1-(4-methylpiperazin-1-yl)pyrido[3,4-d]pyridazin-7(6H)-one formate] to Cc1c(C(F)F)cccc1[C@@H](C)Nc1nnc(N2CCN(C)CC2)c2cc(=O)n(C3(C)CC3)cc12 [Example 213, (R)-4-((1-(3-(difluoromethyl)-2-methylphenyl)ethyl)amino)-6-(1-methylcyclopropyl)-1-(4-methylpiperazin-1-yl)pyrido[3,4-d]pyridazin-7(6H)-one formate], the IC50 falls from 10.7 nM to 6.2 nM (1.7-fold).

Going from Cc1c(C#N)cccc1[C@@H](C)Nc1nnc(N2CCC[C@H]2C)c2cc(=O)n(C3(C)CC3)cc12 [Example 85, 2-methyl-3-((R)-1-((6-(1-methylcyclopropyl)-1-((R)-2-methylpyrrolidin-1-yl)-7-oxo-6,7-dihydropyrido[3,4-d]pyridazin-4-yl)amino)ethyl)benzonitrile] to C[C@@H]1CCCN1c1nnc(N[C@H](C)c2cccc(C(F)F)c2F)c2cn(C3(C)CC3)c(=O)cc12 [Example 28, 4-(((R)-1-(3-(difluoromethyl)-2-fluorophenyl)ethyl)amino)-6-(1-methylcyclopropyl)-1-((R)-2-methylpyrrolidin-1-yl)pyrido[3,4-d]pyridazin-7(6H)-one], the IC50 falls from 11.7 nM to 5.7 nM (2.1-fold).

Compared with CCN(CC)c1nnc(N[C@H](C)c2cccc(C(F)(F)F)c2C)c2cn(C3(C)CC3)c(=O)cc12 [Example 60, (R)-1-(diethylamino)-4-((1-(2-methyl-3-(trifluoromethyl)phenyl)ethyl)amino)-6-(1-methylcyclopropyl) pyrido[3,4-d]pyridazin-7(6H)-one], Cc1c([C@@H](C)Nc2nnc(N3CC4CC4C3)c3cc(=O)n(C4(C)CC4)cc23)cccc1C(F)(F)F (stereo partly drawn) [Example 62, 1-(3-azabicyclo[3.1.0]hexan-3-yl)-4-(((R)-1-(2-methyl-3-(trifluoromethyl)phenyl)ethyl)amino)-6-(1-methylcyclopropyl) pyrido[3,4-d]pyridazin-7(6H)-one] is 2.2-fold lower in IC50: 20.9 nM for the first, 9.4 nM for the second.

C[C@@H](Nc1nnc(N2CCC[C@H](CO)C2)c2cc(=O)n(C3(C)CC3)cc12)c1cccc2c1CCC2(F)F [Example 207, 4-(((R)-1-(1,1-difluoro-2,3-dihydro-1H-inden-4-yl)ethyl)amino)-1-((S)-3-(hydroxymethyl)piperidin-1-yl)-6-(1-methylcyclopropyl) pyrido[3,4-d]pyridazin-7(6H)-one] and C[C@@H](Nc1nnc(N2CCN(C3CCC3)CC2)c2cc(=O)n(C3(C)CC3)cc12)c1cccc(C(F)(F)F)c1F [Example 173, (R)-4-((1-(2-fluoro-3-(trifluoromethyl)phenyl)ethyl)amino)-1-(4-cyclobutylpiperazin-1-yl)-6-(1-methylcyclopropyl) pyrido[3,4-d]pyridazin-7(6H)-one] are within 1.5-fold of each other in IC50: 7.3 nM for the first, 5.3 nM for the second.

First: C[C@@H](Nc1nnc(N2CCC3(CC2)CC3(F)F)c2cc(=O)n(C3(C)CC3)cc12)c1cccc(C(F)F)c1F [Example 186, (R)-1-(1,1-difluoro-6-azaspiro[2.5]octan-6-yl)-4-((1-(3-(difluoromethyl)-2-fluorophenyl)ethyl)amino)-6-(1-methylcyclopropyl) pyrido[3,4-d]pyridazin-7(6H)-one]
Second: C[C@@H](Nc1nnc(N2CC3(CCOCC3)C2)c2cc(=O)n(C3(C)CC3)cc12)c1cccc(C(F)F)c1F [Example 182, (R)-4-((1-(3-(difluoromethyl)-2-fluorophenyl)ethyl)amino)-6-(1-methylcyclopropyl)-1-(7-oxa-2-azaspiro[3.5]nonan-2-yl)pyrido[3,4-d]pyridazin-7(6H)-one]
The IC50 of the first is 6.2-fold higher: 31.1 nM for the first, 5 nM for the second. The second is the more potent here.

Compared with C[C@@H](Nc1nnc(N2CCN(C3CCCC3)CC2)c2cc(=O)n(C3CC(F)(F)C3)cc12)c1cccc(C(F)F)c1F [Example 106, (R)-6-(3,3-difluorocyclobutyl)-4-((1-(3-(difluoromethyl)-2-fluorophenyl)ethyl)amino)-1-(4-cyclopentylpiperazin-1-yl)pyrido[3,4-d]pyridazin-7(6H)-one], Cc1c(C(F)F)cccc1[C@@H](C)Nc1nnc(N2CCN(C3CC3)CC2)c2cc(=O)n(C3CC3)cc12 [Example 212, (R)-6-cyclopropyl-1-(4-cyclopropylpiperazin-1-yl)-4-((1-(3-(difluoromethyl)-2-methylphenyl)ethyl)amino)pyrido[3,4-d]pyridazin-7(6H)-one] is 2.3-fold higher in IC50: 5.2 nM for the first, 11.9 nM for the second. The first is the more potent here.

Going from C[C@@H](Nc1nnc(N(C)C)c2cc(=O)n(C3(C)CC3)cc12)c1cccc(C(F)F)c1F [Example 8, (R)-4-((1-(3-(difluoromethyl)-2-fluorophenyl)ethyl)amino)-1-(dimethylamino)-6-(1-methylcyclopropyl) pyrido[3,4-d]pyridazin-7(6H)-one] to C[C@@H](Nc1nnc(N2CC3CN(C)CC3C2)c2cc(=O)n(C3(C)CC3)cc12)c1cccc(C(F)F)c1F (stereo partly drawn) [Example 206, 4-(((R)-1-(3-(difluoromethyl)-2-fluorophenyl)ethyl)amino)-6-(1-methylcyclopropyl)-1-(5-methylhexahydropyrrolo[3,4-c]pyrrol-2(1H)-yl)pyrido[3,4-d]pyridazin-7(6H)-one], the IC50 falls from 7.7 nM to 4.9 nM (1.6-fold).

C[C@@H](Nc1nnc(N2CCN(C3CC3)CC2)c2cc(=O)n(C3(C)CC3)cc12)c1cccc(C(F)(F)F)c1 [Example 181, (R)-1-(4-cyclopropylpiperazin-1-yl)-6-(1-methylcyclopropyl)-4-((1-(3-(trifluoromethyl)phenyl)ethyl)amino)pyr ido[3,4-d]pyridazin-7(6H)-one formate] and CCN1CCN(c2nnc(N[C@H](C)c3cc(N)cc(C)c3F)c3cn(C4(C)CC4)c(=O)cc23)CC1 [Example 160, (R)-4-((1-(5-amino-2-fluoro-3-methylphenyl)ethyl)amino)-1-(4-ethylpiperazin-1-yl)-6-(1-methylcyclopropyl) pyrido[3,4-d]pyridazin-7(6H)-one formate] are within 1.5-fold of each other in IC50: 7.8 nM for the first, 5.7 nM for the second.

Cc1cc(N)cc([C@@H](C)Nc2nnc(N3CCN(C)CC3)c3cc(=O)n(C4CC4)cc23)c1F [Example 141, (R)-4-((1-(5-amino-2-fluoro-3-methylphenyl)ethyl)amino)-6-cyclopropyl-1-(4-methylpiperazin-1-yl)pyrido[3,4-d]pyridazin-7(6H)-one] and CCN1CCN(c2nnc(N[C@H](C)c3cc(N)cc(C)c3F)c3cn(C4CC4)c(=O)cc23)CC1 [Example 144, (R)-4-((1-(5-amino-2-fluoro-3-methylphenyl)ethyl)amino)-6-cyclopropyl-1-(4-ethylpiperazin-1-yl)pyrido[3,4-d]pyridazin-7(6H)-one formate] are within 1.5-fold of each other in IC50: 7.8 nM for the first, 6.7 nM for the second.
